Experimental data reported in the NIST ThermoML archive (doi:10.1007/s10765-015-1981-5).

Test: xn = mol fraction of the nth substance listed
Details: Gas, Loschmidt cell combine with holographic interferometry

| SMILES | binary diffusion coefficient (293.15 K, 100 kPa, x1 = 0.5) | binary diffusion coefficient (293.15 K, 200 kPa, x1 = 0.5) | binary diffusion coefficient (293.15 K, 500 kPa, x1 = 0.5) | binary diffusion coefficient (313.15 K, 200 kPa, x1 = 0.5) | binary diffusion coefficient (313.15 K, 500 kPa, x1 = 0.5) | binary diffusion coefficient (293.15 K, 100 kPa, x2 = 0.5) | binary diffusion coefficient (293.15 K, 200 kPa, x2 = 0.5) | binary diffusion coefficient (293.15 K, 500 kPa, x2 = 0.5) | binary diffusion coefficient (293.15 K, 1000 kPa, x2 = 0.5) | binary diffusion coefficient (313.15 K, 100 kPa, x2 = 0.5) | binary diffusion coefficient (313.15 K, 200 kPa, x2 = 0.5) | binary diffusion coefficient (313.15 K, 500 kPa, x2 = 0.5) | binary diffusion coefficient (313.15 K, 1000 kPa, x2 = 0.5) | binary diffusion coefficient (333.15 K, 500 kPa, x2 = 0.5) | binary diffusion coefficient (333.15 K, 1000 kPa, x2 = 0.5) | binary diffusion coefficient (333.15 K, 200 kPa, x2 = 0.5) | other results |
| --- | --- | --- | --- | --- | --- | --- | --- | --- | --- | --- | --- | --- | --- | --- | --- | --- | --- |
| [Kr] [krypton] + [He] | 6.19e-05 m2/s | 3.12e-05 m2/s | 1.25e-05 m2/s | 3.48e-05 m2/s | 1.34e-05 m2/s | – | – | – | – | – | – | – | – | – | – | – | binary diffusion coefficient (293.15 K, 1000 kPa, x1 = 0.5): 6.18e-06 m2/s; binary diffusion coefficient (313.15 K, 100 kPa, x1 = 0.5): 7.04e-05 m2/s; binary diffusion coefficient (313.15 K, 1000 kPa, x1 = 0.5): 6.94e-06 m2/s; binary diffusion coefficient (333.15 K, 200 kPa, x1 = 0.5): 3.84e-05 m2/s; binary diffusion coefficient (333.15 K, 500 kPa, x1 = 0.5): 1.55e-05 m2/s; binary diffusion coefficient (333.15 K, 1000 kPa, x1 = 0.5): 7.7e-06 m2/s; binary diffusion coefficient (353.15 K, 200 kPa, x1 = 0.5): 4.25e-05 m2/s; binary diffusion coefficient (353.15 K, 500 kPa, x1 = 0.5): 1.71e-05 m2/s; binary diffusion coefficient (353.15 K, 1000 kPa, x1 = 0.5): 8.54e-06 m2/s |
| [N-]=[N+]=O [nitrous oxide] + N#N | – | – | – | – | – | 1.53e-05 m2/s | 7.9e-06 m2/s | 3.14e-06 m2/s | 1.56e-06 m2/s | 1.76e-05 m2/s | 8.98e-06 m2/s | 3.55e-06 m2/s | 1.77e-06 m2/s | 4.28e-06 m2/s | 1.98e-06 m2/s | – | binary diffusion coefficient (353.15 K, 1000 kPa, x2 = 0.5): 2.24e-06 m2/s |
| [He] [helium] + CCC | – | – | – | – | – | 3.9e-05 m2/s | 1.95e-05 m2/s | – | – | 4.36e-05 m2/s | 2.18e-05 m2/s | – | – | – | – | 2.4e-05 m2/s | – |
| [He] [helium] + N | 7.36e-05 m2/s | 3.7e-05 m2/s | 1.46e-05 m2/s | 4.1e-05 m2/s | 1.65e-05 m2/s | – | – | – | – | – | – | – | – | – | – | – | binary diffusion coefficient (293.15 K, 800 kPa, x1 = 0.5): 8.96e-06 m2/s; binary diffusion coefficient (313.15 K, 800 kPa, x1 = 0.5): 1.02e-05 m2/s; binary diffusion coefficient (333.15 K, 800 kPa, x1 = 0.5): 1.13e-05 m2/s; binary diffusion coefficient (353.15 K, 800 kPa, x1 = 0.5): 1.26e-05 m2/s |
| [Xe] [xenon] + [Ar] | – | – | – | – | – | 3.12e-05 m2/s | 1.56e-05 m2/s | 6.29e-06 m2/s | 3.12e-06 m2/s | 3.5e-05 m2/s | 1.75e-05 m2/s | 7.02e-06 m2/s | 3.48e-06 m2/s | 7.76e-06 m2/s | 3.88e-06 m2/s | 1.94e-05 m2/s | binary diffusion coefficient (333.15 K, 100 kPa, x2 = 0.5): 3.88e-05 m2/s |
